Assays:
Type in all cases: in vivo
Bromus japonicus = experiment: Pot experiment, soil treatment, control of Bromus japonicus (fresh weight, Colby); details: mixtures: both AIs at these rates, after 35 days
Protocol: (§1) Referring to an article of Colby, S. R. i.e., Calculation of the synergistic and antagonistic response of herbicide combinations.
(§2) E0-E value is calculated to evaluate the combined effect of pyroxasulfone and the second herbicide selected from the group consisting of fluorochloridone, aclonifen, diflufenican and terbutryn on the selected weeds.
(§3) In this Example, the herbicidal activity of treatments by a mixture of pyroxasulfone and the second herbicide selected from the group consisting of fluorochloridone, aclonifen, diflufenican and terbutryn for controlling Aegilops tauschii was investigated by a pot experiment. This Example was carried out in accordance with “NY/T 1155.4-2006 Guidelines for Indoor Bioassay Tests of Pesticides, Herbicides Part 4: Activity Determination Tests, Stem and Leaf Spray Method”. • Source of the agrochemicals tested were: • Pyroxasulfone: pyroxasulfone (850g/Kg, WG) from Adama Agan LTD. • Fluorochloridone: fluorochloridone (250 g/L, EC) from Adama Agan LTD. • Aclonifen: aclonifen (600 g/L, SC) from Adama Agan LTD. • Diflufenican: diflufenican (50g/Kg, WP) from Bayer. • Terbutryn: terbutryn (50g/Kg, SC) from Zhejiang Zhongshan Chemical Industry Group Co., Ltd. • Cultivation of test materials: The test soil was formed by mixing the 20 cm layer loam on the ground surface and the culture medium in a ratio of 3:1 as cultivation soil. Weeds were cultivated in an artificial climate chamber. The daytime and nighttime temperatures were set at 22° C. and 19° C., respectively, and the illumination was set at daytime: dark time 12h: 12h.
(§4) A certain amount of Aegilops tauschii seeds were sown in a plastic pot with a diameter of 9 cm, covering with 1-2 mm soil, and putting them in an enamel dish filled with water. The bottom infiltration method was used to water them, the agrochemicals tested in this Example were applied on the second day after sowing Aegilops tauschii seeds.
(§5) Spraying treatment: ASS-4 automatic control spraying system with a fan-shaped nozzle was used indoors to spray the agrochemicals, the running speed was adjusted based on nozzle pressure, flow rate, etc. to spray 50 mL of liquid of agrochemicals on the actual spray area of 1.1 m2 (equivalent to 30 liters per mu), arranging the plastic pots to be processed on the spraying table evenly, and spraying evenly. The spraying pressure was 0.35 MPa, and the flow rate of the fan-shaped nozzle was 800 mL/min, spraying in order from low dosage to high dosage. Each treatment was repeated 3 times. After spraying, the plastic pots were dried for one day, placed in an artificial climate chamber, and watered regularly to keep moist.
(§6) Weed investigation method and time: after applying the agrochemicals, the symptoms of weed damage (such as growth inhibition, chlorosis, deformity, etc.) were recorded in detail. After 35 days, the fresh weight of aerial part of the weeds in each treatment was weighed, and the measured fresh weight inhibition rate and the measured fresh weight survival rate for each treatment were calculated according to the following equations: […]
Example 3 was conducted in substantially the same way as Example 1, except that Bromus japonicus was used instead of Aegilops tauschii.

Galium aparine = experiment: Pot experiment, soil treatment, control of Galium aparine (fresh weight, Colby)
Protocol: as §1, §2, §3, §4, §5, §6
Example 4 was conducted substantially the same way as Example 1, except that Galium aparine was used instead of Aegilops tauschii.

Lithospermum arvense = experiment: Pot experiment, soil treatment, control of Lithospermum arvense (fresh weight, Colby)
Protocol: as §1, §2, §3, §4, §5, §6
Example 5 was conducted substantially the same way as Example 1, except that Lithospermum arvense was used instead of Aegilops tauschii.

Solanum nigrum = experiment: Pot experiment (glass greenhouse), soil treatment, control of Solanum nigrum (fresh weight, Colby)
Protocol: as §1, §2, §3, §4, §5, §6
Example 6 was substantially conducted in the same as Example 1, except that (1) Solanum nigrum was used instead of Aegilops tauschii, (2) in “Cultivation of test materials” part, Solanum nigrum was cultivated in a glass greenhouse instead of an artificial climate chamber at a temperature of 25 to 33° C. with a natural illumination, and (3) in “Spraying treatment” part, after spraying and drying, the plastic pots were placed in a glass greenhouse instead of an artificial climate chamber.

Aegilops tauschii = experiment: Pot experiment, soil treatment, control of Aegilops tauschii (fresh weight, Colby); details: mixtures: both AIs at these rates, after 35 days
Description: as §1
E0 is the theoretical fresh weight survival rate for the mixture of pyroxasulfone and the second herbicide selected from the group consisting of fluorochloridone, aclonifen, diflufenican and terbutryn;
X is the measured fresh weight survival rate for pyroxasulfone used alone at the same dosage as that in the mixture;
Y is the measured fresh weight survival rate for the second herbicide selected from the group consisting of fluorochloridone, aclonifen, diflufenican and terbutryn used alone at the same dosage as that in the mixture;
E is the measured fresh weight survival rate for the mixture of pyroxasulfone and the second herbicide selected from the group consisting of fluorochloridone, aclonifen, diflufenican and terbutryn.
as §2, §3, §4, §5, §6

Lolium multiflorum Lamk = experiment: Pot experiment, soil treatment, control of Lolium multiflorum Lamk (fresh weight, Colby); details: mixtures: both AIs at these rates, after 35 days
Protocol: as §1, §2, §3, §4, §5, §6
Example 2 was conducted in substantially the same way as Example 1, except that Lolium multiflorum Lamk was used instead of Aegilops tauschii.

[1] = g ai/ha: pyroxasulfone 11.25, fluorochloridone 31.25, aclonifen 150, diflufenican 14.0625, terbutryn 140.625
[2] = g ai/ha: pyroxasulfone 22.5, fluorochloridone 62.5, aclonifen 300, diflufenican 28.125, terbutryn 281.25
[3] = g ai/ha: pyroxasulfone 45, fluorochloridone 125, aclonifen 600, diflufenican 56.25, terbutryn 562.5
[4] = g ai/ha: pyroxasulfone 90, fluorochloridone 250, aclonifen 1200, diflufenican 112.5, terbutryn 1125
[5] = g ai/ha: pyroxasulfone 180, fluorochloridone 500, aclonifen 2400, diflufenican 225, terbutryn 2250
[6] = g ai/ha: pyroxasulfone 360, fluorochloridone 1000, aclonifen 4800, diflufenican 450, terbutryn 4500

SMILES: O=C(Nc1ccc(F)cc1F)c1cccnc1Oc1cccc(C(F)(F)F)c1 [diflufenican, N-(2,4-difluorophenyl)-2-(3-(trifluoromethyl)phenoxy)-3-pyridinecarboxamide]
- Measured fresh weight inhibition rate (%) (Bromus japonicus; [1]): 59.8%
- Measured fresh weight survival rate (%) - E (Bromus japonicus; [1]): 40.2%
- Measured fresh weight inhibition rate (%) (Bromus japonicus; [2]): 73.2%
- Measured fresh weight survival rate (%) - E (Bromus japonicus; [2]): 26.8%
- Measured fresh weight inhibition rate (%) (Bromus japonicus; [3]): 80.4%
- Measured fresh weight survival rate (%) - E (Bromus japonicus; [3]): 19.6%
- Measured fresh weight inhibition rate (%) (Bromus japonicus; [4]): 95.9%
- Measured fresh weight survival rate (%) - E (Bromus japonicus; [4]): 4.1%
- Measured fresh weight inhibition rate (%) (Bromus japonicus; [5]): 100.0%
- Measured fresh weight survival rate (%) - E (Bromus japonicus; [5]): 0.0%
- Measured fresh weight survival rate (%) - E (Galium aparine; 14.0625 g ai/ha): 38.4%
- Measured fresh weight survival rate (%) - E (Galium aparine; 28.125 g ai/ha): 27.4%
- Measured fresh weight survival rate (%) - E (Galium aparine; 56.25 g ai/ha): 26.0%
- Measured fresh weight survival rate (%) - E (Galium aparine; 112.5 g ai/ha): 15.1%
- Measured fresh weight survival rate (%) - E (Galium aparine; 225 g ai/ha): 1.4%
- inhibition at 14.0625 g/ha (Galium aparine; Galium aparine, soil, 14.0625 g ai/ha, read-out: Measured fresh weight inhibition rate (%)): 61.6%
- inhibition at 28.125 g/ha (Galium aparine; Galium aparine, soil, 28.125 g ai/ha, read-out: Measured fresh weight inhibition rate (%)): 72.6%
- inhibition at 56.25 g/ha (Galium aparine; Galium aparine, soil, 56.25 g ai/ha, read-out: Measured fresh weight inhibition rate (%)): 74%
- inhibition at 112.5 g/ha (Galium aparine; Galium aparine, soil, 112.5 g ai/ha, read-out: Measured fresh weight inhibition rate (%)): 84.9%
- inhibition at 225 g/ha (Galium aparine; Galium aparine, soil, 225 g ai/ha, read-out: Measured fresh weight inhibition rate (%)): 98.6%
- Measured fresh weight survival rate (%) - E (Lithospermum arvense; 14.0625 g ai/ha): 33.3%
- Measured fresh weight survival rate (%) - E (Lithospermum arvense; 28.125 g ai/ha): 17.4%
- Measured fresh weight survival rate (%) - E (Lithospermum arvense; 56.25 g ai/ha): 15.9%
- Measured fresh weight survival rate (%) - E (Lithospermum arvense; 112.5 g ai/ha): 1.4%
- Measured fresh weight survival rate (%) - E (Lithospermum arvense; 225 g ai/ha): 0.0%
- inhibition at 14.0625 g/ha (Lithospermum arvense; Buglossoides arvensis, soil, 14.0625 g ai/ha, read-out: Measured fresh weight inhibition rate (%)): 66.7%
- inhibition at 28.125 g/ha (Lithospermum arvense; Buglossoides arvensis, soil, 28.125 g ai/ha, read-out: Measured fresh weight inhibition rate (%)): 82.6%
- inhibition at 56.25 g/ha (Lithospermum arvense; Buglossoides arvensis, soil, 56.25 g ai/ha, read-out: Measured fresh weight inhibition rate (%)): 84.1%
- inhibition at 112.5 g/ha (Lithospermum arvense; Buglossoides arvensis, soil, 112.5 g ai/ha, read-out: Measured fresh weight inhibition rate (%)): 98.6%
- inhibition at 225 g/ha (Lithospermum arvense; Buglossoides arvensis, soil, 225 g ai/ha, read-out: Measured fresh weight inhibition rate (%)): 100%
- Measured fresh weight survival rate (%) - E (Solanum nigrum; 14.0625 g ai/ha): 94.1%
- Measured fresh weight survival rate (%) - E (Solanum nigrum; 28.125 g ai/ha): 90.2%
- Measured fresh weight survival rate (%) - E (Solanum nigrum; 56.25 g ai/ha): 79.2%
- Measured fresh weight survival rate (%) - E (Solanum nigrum; 112.5 g ai/ha): 71.8%
- Measured fresh weight survival rate (%) - E (Solanum nigrum; 225 g ai/ha): 63.5%
- inhibition at 14.0625 g/ha (Solanum nigrum; Solanum nigrum, soil, 14.0625 g ai/ha, read-out: Measured fresh weight inhibition rate (%)): 5.9%
- inhibition at 28.125 g/ha (Solanum nigrum; Solanum nigrum, soil, 28.125 g ai/ha, read-out: Measured fresh weight inhibition rate (%)): 9.8%
- inhibition at 56.25 g/ha (Solanum nigrum; Solanum nigrum, soil, 56.25 g ai/ha, read-out: Measured fresh weight inhibition rate (%)): 20.8%
- inhibition at 112.5 g/ha (Solanum nigrum; Solanum nigrum, soil, 112.5 g ai/ha, read-out: Measured fresh weight inhibition rate (%)): 28.2%
- inhibition at 225 g/ha (Solanum nigrum; Solanum nigrum, soil, 225 g ai/ha, read-out: Measured fresh weight inhibition rate (%)): 36.5%
- Measured fresh weight inhibition rate (%) (Aegilops tauschii; [1]): 3.7%
- Measured fresh weight survival rate (%) - E (Aegilops tauschii; [1]): 96.3%
- Measured fresh weight inhibition rate (%) (Aegilops tauschii; [2]): 6.7%
- Measured fresh weight survival rate (%) - E (Aegilops tauschii; [2]): 93.3%
- Measured fresh weight inhibition rate (%) (Aegilops tauschii; [3]): 4.3%
- Measured fresh weight survival rate (%) - E (Aegilops tauschii; [3]): 95.7%
- Measured fresh weight inhibition rate (%) (Aegilops tauschii; [4]): 6.7%
- Measured fresh weight survival rate (%) - E (Aegilops tauschii; [4]): 93.3%
- Measured fresh weight inhibition rate (%) (Aegilops tauschii; [5]): 10.4%
- Measured fresh weight survival rate (%) - E (Aegilops tauschii; [5]): 89.6%
- Measured fresh weight inhibition rate (%) (Aegilops tauschii; [6]): 37.2%
- Measured fresh weight survival rate (%) - E (Aegilops tauschii; [6]): 62.8%
- Measured fresh weight inhibition rate (%) (Lolium multiflorum Lamk; [1]): 87.0%
- Measured fresh weight survival rate (%) - E (Lolium multiflorum Lamk; [1]): 13.0%
- Measured fresh weight inhibition rate (%) (Lolium multiflorum Lamk; [2]): 88.0%
- Measured fresh weight survival rate (%) - E (Lolium multiflorum Lamk; [2]): 12.0%
- Measured fresh weight inhibition rate (%) (Lolium multiflorum Lamk; [3]): 93.2%
- Measured fresh weight survival rate (%) - E (Lolium multiflorum Lamk; [3]): 6.8%
- Measured fresh weight inhibition rate (%) (Lolium multiflorum Lamk; [4]): 99.5%
- Measured fresh weight survival rate (%) - E (Lolium multiflorum Lamk; [4]): 0.5%
- Measured fresh weight inhibition rate (%) (Lolium multiflorum Lamk; [5]): 100.0%
- Measured fresh weight survival rate (%) - E (Lolium multiflorum Lamk; [5]): 0.0%
- Measured fresh weight inhibition rate (%) (Lolium multiflorum Lamk; [6]): 100.0%
- Measured fresh weight survival rate (%) - E (Lolium multiflorum Lamk; [6]): 0.0%

Source: patent publication US20260013504A1, “HERBICIDAL MIXTURE, HERBICIDAL COMPOSITION, METHOD, USE, AND KITS FOR CONTROLLING UNDESIRABLE VEGETATION” (ADAMA AGAN LTD., priority 2022, published 2026)
